Source: paper PMC3602459 (2013)

Assays:
[1] = tested on: tRNA^phe (yeast) (RNA, tRNA) GCGGAUUUAGCUCAGUUGGGAGAGCGCCAGACUGAAGAUCUGGAGGUCCUGUGUUCGAUCCACAGAAUUCGCACCA; experiment: ITC; conditions: 10 mM Na+; citrate-phosphate, pH 7.0, 20 °C; only background heats, binding negligible
[2] = tested on: tRNA^phe (yeast) (RNA, tRNA) GCGGAUUUAGCUCAGUUGGGAGAGCGCCAGACUGAAGAUCUGGAGGUCCUGUGUUCGAUCCACAGAAUUCGCACCA; experiment: UV melting, 260 nm; conditions: 10 mM Na+; citrate-phosphate, pH 7.0; 50 µM tRNA nucleotides; saturating alkaloid; average Tm 50 °C alone; per base
[3] = tested on: tRNA^phe (yeast) (RNA, tRNA) GCGGAUUUAGCUCAGUUGGGAGAGCGCCAGACUGAAGAUCUGGAGGUCCUGUGUUCGAUCCACAGAAUUCGCACCA; experiment: absorbance titration, Benesi-Hildebrand; conditions: 10 mM Na+; citrate-phosphate, pH 7.1, 20 °C; apparent; tRNA in nucleotide phosphates; per base
[4] = tested on: tRNA^phe (yeast) (RNA, tRNA) GCGGAUUUAGCUCAGUUGGGAGAGCGCCAGACUGAAGAUCUGGAGGUCCUGUGUUCGAUCCACAGAAUUCGCACCA; experiment: fluorescence titration, Benesi-Hildebrand; conditions: 10 mM Na+; citrate-phosphate, pH 7.1, 20 °C; apparent; tRNA in nucleotide phosphates; per base
[5] = tested on: tRNA^phe (yeast) (RNA, tRNA) GCGGAUUUAGCUCAGUUGGGAGAGCGCCAGACUGAAGAUCUGGAGGUCCUGUGUUCGAUCCACAGAAUUCGCACCA; experiment: ITC, single-site fit; conditions: 10 mM Na+; citrate-phosphate, pH 7.0, 20 °C; tRNA concentration in nucleotide phosphates; per base
[6] = tested on: tRNA^phe (yeast) (RNA, tRNA) GCGGAUUUAGCUCAGUUGGGAGAGCGCCAGACUGAAGAUCUGGAGGUCCUGUGUUCGAUCCACAGAAUUCGCACCA; experiment: absorbance titration, Scatchard, McGhee-von Hippel cooperative fit; conditions: 10 mM Na+; citrate-phosphate, pH 7.1, 20 °C; overall cooperative constant; tRNA in nucleotide phosphates; per base
[7] = tested on: tRNA^phe (yeast) (RNA, tRNA) GCGGAUUUAGCUCAGUUGGGAGAGCGCCAGACUGAAGAUCUGGAGGUCCUGUGUUCGAUCCACAGAAUUCGCACCA; experiment: fluorescence titration, Scatchard, McGhee-von Hippel cooperative fit; conditions: 10 mM Na+; citrate-phosphate, pH 7.1, 20 °C; overall cooperative constant; tRNA in nucleotide phosphates; per base

Row | Structure (SMILES) | binding [1] | ΔTm [2] [°C] | KBH [3] [M⁻¹] | KBH [4] [M⁻¹] | Ka [5] | Kiω [6] [M⁻¹] | Kiω [7] [M⁻¹]
1 | COc1ccc2cc3[n+](cc2c1OCC(=O)NCCc1ccccc1)CCc1cc2c(cc1-3)OCO2 |  | 8.0 | 874000 | 889000 | 8.20 ± 0.04 × 10^5 M^-1 | 922000 | 941000
2 | COc1ccc2cc3[n+](cc2c1OCC(=O)NCc1ccccc1)CCc1cc2c(cc1-3)OCO2 |  | 7.0 | 613000 | 644000 | 7.17 ± 0.03 × 10^5 M^-1 | 640000 | 658000

Now from value to compound:

Row | binding [1] | ΔTm [2] [°C] | KBH [3] [M⁻¹] | KBH [4] [M⁻¹] | Ka [5] | Kiω [6] [M⁻¹] | Kiω [7] [M⁻¹] | Structure (SMILES)
3 | weak | 2.0 | 4300 | 4200 |  |  |  | COc1ccc2cc3[n+](cc2c1O)CCc1cc2c(cc1-3)OCO2
4 |  | 4.5 | 114000 | 122000 | 0.86 ± 0.01 × 10^5 M^-1 | 169000 | 177000 | COc1ccc2cc3[n+](cc2c1OC)CCc1cc2c(cc1-3)OCO2
5 |  | 6.5 | 425000 | 404000 | 4.67 ± 0.03 × 10^5 M^-1 | 434000 | 427000 | COc1ccc2cc3[n+](cc2c1OCC(=O)Nc1ccccc1)CCc1cc2c(cc1-3)OCO2
